Series [1] has as its system PPO. As to conditions: positive control at 200 mM; PPO harvested from trichome cells; cited from earlier work.
Series [2] has as its system PPO. Put plainly: Decrease of PPO activity (browning of supernatant) by antioxidants in ground tomato leaves. It counts as biochemical, Tomato (L. esculentum). As to conditions: for Efficient concentration (minimal concentration that enables a decrease of 95% of PPO activity): w/v, 10 mM Tris-HCl pH=8, about 2 hrs at 4° C. As to the method: Three compounds were tested: citric acid, ascorbic acid and sodium bisulfite. Different concentrations of chemicals were used to identify the chemical with the highest antioxidant activity. Tomato (L. esculentum) young leaves (about 100 mg) were grinded at 4° C. in 200 μl of 10 mM Tris-HCl pH=8 buffer containing appropriate concentration of antioxidant (0.01-2.0% w/v), incubated for about 2 hrs at 4° C. and centrifuged at 14,000 rpm for 3 min in order to separate leaves-debris and liquid fraction. Decreasing of PPO activity was inspected by eliminating the production of brown color of the supernatant as a result of the oxidation of polyphenols. Table 8 below summarizes the minimal concentration that enables a decrease of 95% of PPO activity.
A buffer without any antioxidant was used as a negative control.

The subject of another series is tomato trichome. Put plainly: GUS staining of leaves of T1 tomato plants carrying promoter-GUS constructs. It counts as in vivo, tomato (Lycopersicon esculentum cv. Micro-Tom). As to the method: Tomato transformation—Tomato transformation was carried out according to Fillati et al. (19). Briefly, Lycopersicon esculentum cv. Micro-Tom cotyledons were used for Agrobacterium based plant transformation. The Micro-Tom seeds were surface sterilized for 10 min in a 3% sodium hypochlorite solution. The seeds were washed with DDW three times and soaked for three hours in fresh DDW, then plated into 0.5 L container with Nitsch medium, containing MS salts, 3% sucrose, Nitsch vitamins and 0.8% plant agar (Duchefa, Netherland). The PH was adjusted to 5.8 prior to autoclaving for 20 min at 121° C. 50 seeds where plated on 0.5 L sterilized container containing the germination medium and left at 25° C. in culture room, 16/8 hrs light/dark cycles, under light intensity of (150 μEm^−2S). Seedlings where grown for 8 days.
A. GUS staining—Gus staining of tomato and tobacco plants was effected as previously described (15). Briefly: Leaves were fixed in 90% ice cold acetone for 15-20 minutes (on ice), followed by removal of acetone and a double tissue rinsing with the Working Solution [25 mM Sodium Phosphate (Sigma, USA) buffer pH=7, Ferricyanide (Sigma, USA) 1.25 mM, Ferrocyanide (Sigma, USA) 1.25 mM, Triton X-100 (Sigma, USA) 0.25%, EDTA (BioLab) 0.25 mM] for 15-20 minutes. Rinse solution was removed, replaced with Staining solution [Working solution with 5-bromo-4-chloro-3-indolyl-β-D-glucuronic acid (X-GlcA, Duchefa) solubilized in N,N-Dimethylformamide (BioLab) 1.5 mg/ml and Dithiothreitol (DTT, Bio Lab) 100 mM] and incubated in the dark (tubes wrapped with aluminum foil) over night at 37° C. Distaining was effected by sinking the plant tissue in 70% ethanol and heating at 50° C. for ˜2 hours. The distaining step was repeated until the plant tissue became transparent except the blue stained regions. Distained plants were stored in 70% ethanol (BioLab) at room temperature.
GUS staining was performed on leaves of T1 tomato and tobacco plants transfected with a binary vector including putative trichome specific promoters upstream of a GUS gene. […]

Marks after values point to notes of the source that are not given here.

For the molecule `O[C@H](CS)[C@H](O)CS` (racemic) [DDT, Dithiothreitol], the PPO activity result in the series on PPO [1] is recorded as “eliminate PPO activity”.

Consider `O=C1O[C@H]([C@@H](O)CO)C(O)=C1O` [Ascorbic acid], for which, in the series with PPO [2], the “Efficient concentration (minimal concentration that enables a decrease of 95% of PPO activity)” value was determined as 1.0%*.

`O=C(O)CC(O)(CC(=O)O)C(=O)O` [Citric acid]: in the series with PPO [2], the “Efficient concentration (minimal concentration that enables a decrease of 95% of PPO activity)” value is recorded as 1.0%.

For the molecule `O=S([O-])O.[Na+]` [Sodium bisulfite], the “PPO activity as indicated by medium browning” value in the series with PPO [2] (increasing concentrations, FIG. 3) was “decreased PPO activity”. The “Efficient concentration (minimal concentration that enables a decrease of 95% of PPO activity)” value in the series with PPO [2] stood at 0.05%.

B1: TR27-P: previously described cotton promoter, G. barbadense var. Pima 15, SEQ ID NO: 39 (nucleic acid)
DNA: AAGCTTTAAGTTTAAATCCTATTGTAGTGTTATTTATAAAAAAAATGAGAAAAGATAAAAATACCTTTATATTAATATTTGTTATATTATAAAATAAGGATATTTTTAACAAATTTTCAATTGAATAGATGTTTGGGTGAATCCTAATACCAATTAAAGTATATATACAGCAAACAATTATAAATCAAATTACTTTTAATAAAATGCTATCATTCAATTCAATGACAATAAATGCATTTATAAATACATCAAATGTAAATCTCATGTTTATAAGAAAACACGTAGAAAAAAAGTTAAACCAATATTTGAGTCCTAGCTGTGGAGGCATGATTGAGTGAAATCAAATGGACGCTGGTTTTAATTCTATTGAAAGAAACCAATAATCACGTAGGTTGGCAGTTGAACATAATTGAATGGTCTCAACTTTTAATGTGGTGTTAATGTTTGGATCGGATAATCTCAACTTACCTAATAGCTAGGAAAGTAAAATTCAAACATCACCCGCTACTACTTTTGGCTATAAAAACCCTCCTACCCTCAAGCCCTAACCACGACAATCACCAATAGTACTACTACTCCAAGCAAGTATTTTCCTTACACGTTTGTTTTTCTTGTGATAATGGATCC
modifications: Gossypium barbadense
In the case of B1, the Avg grade in the series with tomato trichome (GUS staining, tomato T1 generation, signal peptide: No) worked out at 0.4. Besides, in the series with tomato trichome (GUS under the regulation of the promoter, FIGS. 1d-h), the GUS expression pattern result was “expressed in a trichome-gland specific manner”. Moreover, the “effectiveness in facilitating expression of heterologous genes in the tomato trichome” value in the series with tomato trichome (conclusion from Table 6) is listed as “most effective”.

The values above are taken from US8129514B2, “Nucleotide sequences for regulating gene expression in plant trichomes and constructs and methods utilizing same” (Evogene Ltd., priority 2003, dated 2012).
